For assay [1], the system named is SKOV3 cells. The assay is described as follows: Serum starved proliferation assay on the ovarian carcinoma SKOV3 cells (C3). Format: cell-based. The note with it: EGF stimulated (100 ng/ml, 72 hours, serum free) or 72 hours with compounds, MTT cell viability assay; for IC50: Homo sapiens, SK-OV-3, 72 h, read-out: SKOV3 cell (C3): pIC50 (converted). As to the method: The ovarian carcinoma cell line (SKOV3) was used in an epidermal growth factor stimulated cell proliferation assay, to assess the inhibitory effect of the compounds on EGF in whole cells.
In a first step the SKOV3 cells were incubated for 24 hours in the presence of 10% FCS serum. In the second step the cells were incubated with the compounds to be tested in a serum free condition (37° C. and 5% (v/v) CO2) and subsequently stimulated for 72 hours with EGF at a final concentration of 100 ng/ml. The effect of the compounds on the EGF stimulation was finally assessed in a standard MTT cell viability assay.
Alternatively, the SKOV3 cells were incubated for 24 hours in the presence of 10% FCS serum. In the second step the cells were incubated for 72 hours with the compounds to be tested and the effect of the compounds on cell proliferation was finally assessed in a standard MTT cell viability assay.
(In general: Tetrazolium dyes change colour on reduction, which living cells bring about.)

Assay [2] deals with EGFR (Homo sapiens, UniProt P00533). The assay is described as follows: In vitro inhibition of EGFR, Flash Plate or glass-fiber filter technology (C2). Format: biochemical. Details: 0.5 μg EGFR-kinase domain/well. The note with it: EGFR-kinase domain, 5.0 μM unlabeled ATP, read-out: Kinase activity.(C2): pIC50 (converted). As to the method:
The in vitro inhibition of EGFR was assessed using either the Flash Plate technology or the glass-fiber filter technology as described by Davies, S. P. et al., Biochem J. (2000), 351; p. 95-105. The Flash Plate technology is generally described by B. A. Brown et al. in High Throughput Screening (1997), p. 317-328. Editor(s): Devlin, John P. Publisher: Dekker, New York, N.Y.
In the Flash Plate EGFR kinase reaction assay, a kinase substrate consisting of biotinylated poly(L-glutamic acid-L-tyrosine) (poly(GT)biotin), is incubated with the aforementioned protein in the presence of (^33P) radiolabeled ATP. (^33P) phosphorylation of the substrate is subsequently measured as light energy emitted using a streptavidin-coated Flash Plate (PerkinElmer Life Sciences) by trapping and quantifying the binding of the biotin tagged and radiolabeled substrate.
The EGFR kinase reaction is performed at 30° C. for 60 minutes in a 96-well microtiter FlashPlate (PerkinElmer Life Sciences). For each of the tested compounds a full dose response 1·10^−6M to 1·10^−10M has been performed. IRESSA° and Tarceva™ (erlotinib) were used as reference compounds. The 100 μl reaction volume contains 54.5 mM TrisHCl pH 8.0, 10 mM MgCl2, 100 μM Na3VO4, 5.0 μM unlabeled ATP, 1 mM DTT, 0.009% BSA, 0.8 μCi AT^33P, 0.35 μg/well poly(GT)biotin and 0.5 μg EGFR-kinase domain/well.
The reaction is stopped by aspirating the reaction mixture and washing the plate 3× with 200 μl wash/stop buffer (PBS+100 mM EDTA). After the final wash step 200 μl of wash/stop buffer was added to each well and the amount of phosphorylated (^33P) Poly(GT)biotin determined by counting (30 sec/well) in a microtiterplate scintillation counter.
In the glass-fiber filter technology EGFR kinase reaction assay, a kinase substrate consisting of poly(L-glutamic acid-L-tyrosine) (poly(GT)), is incubated with the aforementioned protein in the presence of (^33P) radiolabeled ATP. (^33P) Phosporylation of the substrate is subsequently measured as radioactivity bound on a glassfiber-filter.
The EGFR kinase reaction is performed at 25° C. for 10 minutes in a 96-well microtiterplate. For each of the tested compounds a full dose response 1·10^−6M to 1·10^−10M has been performed. IRESSA° and Tarceva™ (erlotinib) were used as reference compounds. The 25 μl reaction volume contains 60 mM TrisHCl pH 7.5, 3 mM MgCl2, 3 mM Mn Cl2, 3 μM Na3VO4, 50 μg/ml PEG20000, 5.0 μM unlabeled ATP, 1 mM DTT, 0.1 μCi AT^33P, 62.5 ng/well poly(GT) and 0.5 μg EGFR-kinase domain/well.
The reaction is stopped by adding 5 μl of a 3% phosphoric acid solution. 10 μl of the reaction mixture is then spotted onto a Filtermat A filter (Wallac) and washed 3 times for 5 min. in 75 mM phosphoric acid and 1 time for 5 min. in methanol prior to drying and quantification on the Typhoon (Amersham) using a LE phosphorage storage screen.

Chain of EGFR (P00533 712-979 limits assumed): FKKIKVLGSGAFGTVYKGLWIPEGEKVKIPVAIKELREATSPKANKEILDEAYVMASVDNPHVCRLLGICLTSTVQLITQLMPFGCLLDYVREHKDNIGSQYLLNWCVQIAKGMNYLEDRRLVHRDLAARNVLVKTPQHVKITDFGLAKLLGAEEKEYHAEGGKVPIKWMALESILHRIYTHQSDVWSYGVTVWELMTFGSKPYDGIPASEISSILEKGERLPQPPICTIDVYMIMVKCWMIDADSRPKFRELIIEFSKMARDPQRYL

`COc1cc2ncnc3c2cc1OCCCCNC(=O)C1CCCN1Cc1cc(F)c(Cl)cc1N3` (stereo not shown) [Compound 102, 4,6-ethanediylidenepyrimido[4,5-b]pyrrolo[2,1-m][6,1,11,14]benzoxatriazacycloheptadecin-13(8H)-one, 21-chloro-20-fluoro-9,10,11,12,13a,14,15,16,18,23-decahydro-24-methoxy-]: the IC50 in assay [1] is 50.1 nM; in assay [2], 200 nM.

`COc1cc2ncnc3c2cc1OCCNC(=S)C1CCCN1Cc1cc(F)c(Cl)cc1N3` (stereo not shown) [Compound 104, 4,6-ethanediylidenepyrimido[4,5-b]pyrrolo[2,1-k][6,1,9,12]benzoxatriazacyclopentadecine-11(8H)-thione, 19-chloro-18-fluoro-9,10,11a,12,13,14,16,21-octahydro-22-methoxy-]: the IC50 in assay [1] was 316 nM; in assay [2], 1000 nM.

Take `COc1cc2ncnc3c2cc1OCCCC=CCCCC(=O)NCc1ccc(Cl)cc1N3` [Compound 105, 4,6-ethanediylidenepyrimido[4,5-b][6,1,16]benzoxadiazacyclononadecin-16(17H)-one, 21-chloro-8,9,10,13,14,15,18,23-octahydro-24-methoxy-]: the “SKOV3 cell (C3): pIC50” value in assay [1] came to 7.6. Moreover, the IC50 in assay [2] is 158 nM.

As to `COc1cc2ncnc3c2cc1OCCCC=CCCCC(=O)NCc1ccc(Cl)cc1N3` [Compound 106, 4,6-ethanediylidenepyrimido[4,5-b][6,1,16]benzoxadiazacyclononadecin-16(17H)-one, 21-chloro-8,9,10,13,14,15,18,23-octahydro-24-methoxy-], the “SKOV3 cell (C3): pIC50” value in assay [1] came out at 7.2. The IC50 in assay [2] was 100 nM.

As to `COc1cc2ncnc3c2cc1OCCC=CCCCC(=O)NCc1ccc(Cl)cc1N3` [Compound 108, 4,6-ethanediylidene-8H-pyrimido[4,5-b][6,1,15]benzoxadiazacyclooctadecin-15(16H)-one, 20-chloro-9,12,13,14,17,22-hexahydro-23-methoxy-], the IC50 is 158 nM in assay [1] and 398 nM in assay [2].

As to `COc1cc2ncnc3c2cc1OCCCC=CCC(NC(=O)OC(C)(C)C)C(=O)NCc1ccc(Cl)cc1N3` (stereo not shown) [Compound 109, carbamic acid, (20-chloro-9,10,13,14,15,16,17,22-octahydro-23-methoxy-15-oxo-4,6-ethanediylidene-8H-pyrimido[4,5-b][6,1,15]benzoxadiazacyclooctadecin-14-yl)-, 1,1-dimethylethyl ester], the “SKOV3 cell (C3): pIC50” value in assay [1] is 6.5. In addition, the IC50 in assay [2] is 2000 nM.

On to `COc1cc2ncnc3c2cc1OCCCCCCC(NC(=O)OC(C)(C)C)C(=O)NCc1ccc(Cl)cc1N3` (stereo not shown) [Compound 111, carbamic acid, (20-chloro-9,10,11,12,13,14,15,16,17,22-decahydro-23-methoxy-15-oxo-4,6-ethanediylidene-8H-pyrimido[4,5-b][6,1,15]benzoxadiazacyclooctadecin-14-yl)-, 1,1-dimethylethyl ester], for which the figures for the IC50 in assay [1] and in assay [2] were 10000 nM and 1580 nM, respectively.

Turning to `COc1cc2ncnc3c2cc1OCCCCCNCCN(C)Cc1ccc(Cl)cc1N3` [Compound 117, 4,6-ethanediylidene-8H-pyrimido[4,5-b][6,1,12,15]benzoxatriazacyclooctadecine, 20-chloro-9,10,11,12,13,14,15,16,17,22-decahydro-23-methoxy-16-methyl-], the IC50 in assay [1] was 3980 nM; in assay [2], 200 nM.

`COc1cc2ncnc3c2cc1OCC(=O)NC(C)C(=O)NCCc1ccc(Cl)cc1N3` (stereo not shown) [Compound 119, 4,6-ethanediylidene-8H-pyrimido[4,5-b][6,1,9,12]benzoxatriazacyclohexadecine-9,12-dione, 18-chloro-10,11,13,14,15,20-hexahydro-21-methoxy-11-methyl-]: the IC50 in assay [1] was 1580 nM; in assay [2], 1000 nM.

For the molecule `COc1cc2ncnc3c2cc1OCC(=O)NC(C)C(=O)NCc1ccc(Cl)cc1N3` (stereo not shown) [Compound 120, 4,6-ethanediylidenepyrimido[4,5-b][6,1,9,12]benzoxatriazacyclopentadecine-9,12(8H,13H)-dione, 17-chloro-10,11,14,19-tetrahydro-20-methoxy-11-methyl-], the IC50 in assay [1] is 1000 nM; in assay [2] it was 2000 nM.

Turning to `COc1cc2ncnc3c2cc1OCC(=O)NC(C(C)C)C(=O)NCc1ccc(Cl)cc1N3` (stereo not shown) [Compound 121, 4,6-ethanediylidenepyrimido[4,5-b][6,1,9,12]benzoxatriazacyclopentadecine-9,12(8H,13H)-dione, 17-chloro-10,11,14,19-tetrahydro-20-methoxy-11-(1-methylethyl)-], the IC50 in assay [1] was 10000 nM; in assay [2], 2510 nM.

On to `COc1cc2ncnc3c2cc1OCC(=O)NC(Cc1ccccc1)C(=O)NCc1ccc(Cl)cc1N3` (stereo not shown) [Compound 122, 4,6-ethanediylidenepyrimido[4,5-b][6,1,9,12]benzoxatriazacyclopentadecine-9,12(8H,13H)-dione, 17-chloro-10,11,14,19-tetrahydro-20-methoxy-11-(phenylmethyl)-], for which the IC50 is 10000 nM in assay [1] and 398 nM in assay [2].

As to `COc1cc2ncnc3c2cc1OCC(=O)NC(C)C(=O)NCc1ccccc1N3` (stereo not shown) [Compound 123, 4,6-ethanediylidenepyrimido[4,5-b][6,1,9,12]benzoxatriazacyclopentadecine-9,12(8H,13H)-dione, 10,11,14,19-tetrahydro-20-methoxy-11-methyl-], the IC50 in assay [1] was 10000 nM; in assay [2], 6310 nM.

Consider `COc1cc2ncnc3c2cc1OCC(=O)N1CCCC1C(=O)NCc1ccccc1N3` (stereo not shown) [Compound 125, 9,11-ethanediylidenepyrimido[4,5-b]pyrrolo[1,2-i][6,1,9,12]benzoxatriazacyclopentadecine-14,19(5H,13H)-dione, 16,17,18,18a,20,21-hexahydro-22-methoxy-], for which the IC50 in assay [1] was 10000 nM; in assay [2], 7940 nM.

As to `COc1cc2ncnc3c2cc1OCC(=O)N1CCCC1C(=O)NCc1ccc(Cl)cc1N3` (stereo not shown) [Compound 126, 9,11-ethanediylidenepyrimido[4,5-b]pyrrolo[1,2-i][6,1,9,12]benzoxatriazacyclopentadecine-14,19(5H,13H)-dione, 3-chloro-16,17,18,18a,20,21-hexahydro-22-methoxy-], the IC50 in assay [1] was 2510 nM; in assay [2] it was 2000 nM.

As to `COc1cc2ncnc3c2cc1OCC(=O)NC(C(C)O)C(=O)NCc1ccc(Cl)cc1N3` (stereo not shown) [Compound 127, 4,6-ethanediylidenepyrimido[4,5-b][6,1,9,12]benzoxatriazacyclopentadecine-9,12(8H,13H)-dione, 17-chloro-10,11,14,19-tetrahydro-11-(1-hydroxyethyl)-20-methoxy-], the results for the IC50 in assay [1] and in assay [2] were 1580 nM and 251 nM, respectively.

`CCC(C)C1NC(=O)CCCOc2cc3c(ncnc3cc2OC)Nc2cc(Cl)ccc2CNC1=O` (stereo not shown) [Compound 128, 4,6-ethanediylidenepyrimido[4,5-b][6,1,11,14]benzoxatriazacycloheptadecine-11,14(8H,15H)-dione, 19-chloro-9,10,12,13,16,21-hexahydro-22-methoxy-13-(1-methylpropyl)-]: the figures for the IC50 in assay [1] and in assay [2] were 200 nM and 10 nM, respectively.

For the origin of these results see patent US8394786B2, “Quinazoline derivatives” (Janssen Pharmaceutica N.V., priority 2003, dated 2013).
